# Measurements taken from patent EP1886694A1, “Peroral formulation of dienogest and ethinylestradiol for contraception” (priority 2006, dated 2008).
# Legend:
# Ovulationshemmung = assay: optimal dose for reliable ovulation inhibition; type: in vivo; settings: mikronisiert, mittlere Teilchengröße ca. 3 µm
# Procedure: Als schwerlöslicher Wirkstoff wird Dienogest üblicherweise mikronisiert mit einer mittleren Teilchengröße von ca. 3 µm eingesetzt. Mit dieser Partikelgrößenverteilung wurde als optimale Dosis für eine sichere Ovulationshemmung 2 mg Dienogest ermittelt.
# [1] = Einzeldosis; mittlere Partikelgröße 3,7 µm compared with 22 µm; cited from earlier work
Compound,optimale Dosis für eine sichere Ovulationshemmung (Ovulationshemmung),Plasmaspiegel [1]
"C[C@]12CCC3=C4CCC(=O)C=C4CC[C@H]3[C@@H]1CC[C@@]2(O)CC#N [Dienogest, 17α-Cyanomethyl-17-β-hydroxyestra-4,9-dien-3on]",2 mg,
C[C@H]1O[C@@H](O[C@H]2[C@@H](O)C[C@H](O[C@H]3[C@@H](O)C[C@H](O[C@H]4CC[C@@]5(C)[C@H](CC[C@@H]6[C@@H]5C[C@@H](O)[C@]5(C)[C@@H](C7=CC(=O)OC7)CC[C@]65O)C4)O[C@@H]3C)O[C@@H]2C)C[C@H](O)[C@@H]1O [Digoxin],,fast doppelt so hohe
